In patent US20240217959A1, “New (Homo)Piperidinyl Heterocycles as Sigma Ligands” (ACONDICIONAMIENTO TARRASENSE, priority 2021, published 2024):

Columns and labels:
[1] = biological target: T1, human σ2/TMEM97 receptor (Homo sapiens, UniProt Q5BJF2); assay: Binding assay to human σ2/TMEM97 receptor ([3H]-DTG); conditions: transfected HEK-293 membranes, 10 nM [3H]-DTG, 25° C. 120 minutes; read-out: Binding σ-2
T1 construct: expressed in transfected cells; host or cells: HEK-293
Description: Transfected HEK-293 membranes (15 μg) were incubated with 10 nM [^3H]-1,3-Di-o-tolylguanidine (DTG) in assay buffer containing Tris-HCl 50 mM at pH 8.0. NSB (non-specific binding) was measured by adding 10 μM haloperidol. The binding of the test compound was measured at either one concentration (% inhibition at 1 or 10 μM) or five different concentrations to determine affinity values (Ki). Plates were incubated at 25° C. for 120 minutes. After the incubation period, the reaction mix was transferred to MultiScreen HTS, FC plates (Millipore), filtered and washed 3 times with ice-cold 10 mM Tris-HCL (pH 8.0). Filters were dried and counted at approximately 40% efficiency in a MicroBeta scintillation counter (Perkin-Elmer) using EcoScint liquid scintillation cocktail.

[2] = biological target: T2, human σ1 receptor (Homo sapiens, UniProt Q99720); assay: Human σ1 receptor radioligand assay ([3H](+)-pentazocine); conditions: transfected HEK-293 membranes, 5 nM [3H](+)-pentazocine, 37° C. 120 minutes; read-out: Binding σ-1
T2 construct: expressed in transfected cells; host or cells: HEK-293
T2 sequence (Q99720 whole entry): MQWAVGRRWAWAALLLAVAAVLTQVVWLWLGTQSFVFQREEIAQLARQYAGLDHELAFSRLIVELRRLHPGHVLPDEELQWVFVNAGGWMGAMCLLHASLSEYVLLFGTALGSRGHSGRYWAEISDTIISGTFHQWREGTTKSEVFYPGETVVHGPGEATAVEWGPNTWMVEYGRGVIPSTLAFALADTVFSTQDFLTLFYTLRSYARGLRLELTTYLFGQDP
Description: Transfected HEK-293 membranes (7 μg) were incubated with 5 nM of [^3H](+)-pentazocine in assay buffer containing Tris-HCl 50 mM at pH 8. NBS (non-specific binding) was measured by adding 10 μM haloperidol. The binding of the test compound was measured at either one concentration (% inhibition at 1 or 10 μM) or five different concentrations to determine affinity values (Ki). Plates were incubated at 37° C. for 120 minutes. After the incubation period, the reaction mix was then transferred to MultiScreen HTS, FC plates (Millipore), filtered and plates were washed 3 times with ice-cold 10 mM Tris-HCL (pH 7.4). Filters were dried and counted at approximately 40% efficiency in a MicroBeta scintillation counter (Perkin-Elmer) using EcoScint liquid scintillation cocktail.

T1 sequence (Q5BJF2 whole entry): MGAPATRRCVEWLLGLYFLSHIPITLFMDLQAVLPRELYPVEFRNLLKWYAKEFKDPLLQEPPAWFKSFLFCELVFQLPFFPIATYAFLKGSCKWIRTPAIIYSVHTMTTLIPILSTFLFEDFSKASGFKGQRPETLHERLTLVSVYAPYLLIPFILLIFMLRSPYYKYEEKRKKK

`Cc1cc(-c2cnc(C3CC3)nc2C2CCN(CC(=O)N3CCOCC3)CC2)on1` [Example 1, 2-(4-(2-Cyclopropyl-5-(3-methylisoxazol-5-yl)pyrimidin-4-yl)piperidin-1-yl)-1-morpholinoethanone] was tested, and the Ki [1] was < 100 nM and the Ki [2] was 500 to 1000 nM.

`Cc1cc(-c2cnc(C(C)C)nc2C2CCN(CC(=O)N3CCOCC3)CC2)on1` [Example 2, 2-(4-(2-Isopropyl-5-(3-methylisoxazol-5-yl)pyrimidin-4-yl)piperidin-1-yl)-1-morpholinoethanone] was tested, and the Ki [1] was < 100 nM and the Ki [2] was > 1000 nM.

In the case of `CCc1ncc(-c2cc(C)no2)c(C2CCN(CC(=O)N3CCCOCC3)CC2)n1` [Example 3, 2-(4-(2-Ethyl-5-(3-methylisoxazol-5-yl)pyrimidin-4-yl)piperidin-1-yl)-1-(1,4-oxazepan-4-yl)ethanone], the Ki [1] is reported as < 100 nM and the Ki [2] is reported as > 1000 nM.

With `CCc1ncc(-c2cc(C)no2)c(C2CCN(CC(=O)N3CCC4(CCOC4)CC3)CC2)n1` [Example 4, 2-(4-(2-Ethyl-5-(3-methylisoxazol-5-yl)pyrimidin-4-yl)piperidin-1-yl)-1-(2-oxa-8-azaspiro[4.5]decan-8-yl)ethanone] the Ki [1] was < 100 nM and the Ki [2] was > 1000 nM.

In the case of `CCc1ncc(-c2cc(C)no2)c(C2CCN(CC(=O)N3CCOCC3)CC2)n1` [Example 5, 2-(4-(2-Ethyl-5-(3-methylisoxazol-5-yl)pyrimidin-4-yl)piperidin-1-yl)-1-morpholinoethanone], the Ki [1] is reported as < 100 nM and the Ki [2] is reported as > 1000 nM.

With `CCc1ncc(-c2cc(C)no2)c(C2CCN(CC(=O)N3CCC(F)(F)CC3)CC2)n1` [Example 6, 1-(4,4-Difluoropiperidin-1-yl)-2-(4-(2-ethyl-5-(3-methylisoxazol-5-yl)pyrimidin-4-yl)piperidin-1-yl)ethanone] the Ki [1] was < 100 nM and the Ki [2] was 500 to 1000 nM.

In the case of `CCc1ncc(-c2cc(C)no2)c(C2CCN(CC(=O)N3CCCN(C)CC3)CC2)n1` [Example 7, 2-(4-(2-Ethyl-5-(3-methylisoxazol-5-yl)pyrimidin-4-yl)piperidin-1-yl)-1-(4-methyl-1,4-diazepan-1-yl)ethanone], the Ki [1] is reported as < 100 nM and the Ki [2] is reported as > 1000 nM.

With `Cc1cc(-c2cnc(C(F)(F)F)nc2C2CCN(CC(=O)N3CCOCC3)CC2)on1` [Example 8, 2-(4-(5-(3-Methylisoxazol-5-yl)-2-(trifluoromethyl)pyrimidin-4-yl)piperidin-1-yl)-1-morpholinoethanone] the Ki [1] was < 100 nM and the Ki [2] was > 1000 nM.

For `CCc1ncc(-c2cc(C)no2)c(C2CCN(CCC(=O)N3CCOCC3)CC2)n1` [Example 9, 3-(4-(2-Ethyl-5-(3-methylisoxazol-5-yl)pyrimidin-4-yl)piperidin-1-yl)-1-morpholinopropan-1-one], the Ki [1] was < 100 nM and the Ki [2] was > 1000 nM.

`CCc1ncc(-c2cc(C)no2)c(C2CCN(CCN3CCOCC3)CC2)n1` [Example 10, 4-(2-(4-(2-Ethyl-5-(3-methylisoxazol-5-yl)pyrimidin-4-yl)piperidin-1-yl)ethyl)morpholine] was tested, and the Ki [1] was < 100 nM and the Ki [2] was 100 to 500 nM.

For `CCc1ncc(-c2cc(C)no2)c(C2CCN(CC(=O)N3CCCCC3)CC2)n1` [Example 11, 2-(4-(2-Ethyl-5-(3-methylisoxazol-5-yl)pyrimidin-4-yl)piperidin-1-yl)-1-(piperidin-1-yl)ethan-1-one], the Ki [1] was < 100 nM and the Ki [2] was 500 to 1000 nM.

For `CCCc1ncc(-c2cc(C)no2)c(C2CCN(CC(=O)N3CCOCC3)CC2)n1` [Example 12, 2-(4-(5-(3-Methylisoxazol-5-yl)-2-propylpyrimidin-4-yl)piperidin-1-yl)-1-morpholinoethan-1-one], the Ki [1] was < 100 nM and the Ki [2] was > 1000 nM.

For `CCc1ncc(-c2ccccn2)c(C2CCN(CC(=O)N3CCOCC3)CC2)n1` [Example 13, 2-(4-(2-Ethyl-5-(pyridin-2-yl)pyrimidin-4-yl)piperidin-1-yl)-1-morpholinoethan-1-one], the Ki [1] was 100 to 500 nM and the Ki [2] was > 1000 nM.

With `CCc1ncc(-c2cccc(C)n2)c(C2CCN(CC(=O)N3CCOCC3)CC2)n1` [Example 14, 2-(4-(2-Ethyl-5-(6-methylpyridin-2-yl)pyrimidin-4-yl)piperidin-1-yl)-1-morpholinoethan-1-one] the Ki [1] was 100 to 500 nM and the Ki [2] was > 1000 nM.

`CCc1ncc(-c2ccncc2)c(C2CCN(CC(=O)N3CCOCC3)CC2)n1` [Example 15, 2-(4-(2-Ethyl-5-(pyridin-4-yl)pyrimidin-4-yl)piperidin-1-yl)-1-morpholinoethan-1-one] showed a Ki [1] of 500 to 1000 nM and a Ki [2] of 500 to 1000 nM.

With `CCc1ncc(-c2nccn2C)c(C2CCN(CC(=O)N3CCOCC3)CC2)n1` [Example 16, 2-(4-(2-Ethyl-5-(1-methyl-1H-imidazol-2-yl)pyrimidin-4-yl)piperidin-1-yl)-1-morpholinoethan-1-one] the Ki [1] was 500 to 1000 nM and the Ki [2] was > 1000 nM.

Work on `CCc1ncc(-c2cc(C)no2)c([C@@H]2CCCN(CC(=O)N3CCOCC3)CC2)n1` [Example 17, (R)-2-(4-(2-Ethyl-5-(3-methylisoxazol-5-yl)pyrimidin-4-yl)azepan-1-yl)-1-morpholinoethan-1-one] yielded a Ki [1] of 100 to 500 nM and a Ki [2] of 100 to 500 nM.

In the case of `CCc1ncc(-c2cc(C)no2)c([C@H]2CCCN(CC(=O)N3CCOCC3)CC2)n1` [Example 18, (S)-2-(4-(2-Ethyl-5-(3-methylisoxazol-5-yl)pyrimidin-4-yl)azepan-1-yl)-1-morpholinoethan-1-one], the Ki [1] is reported as < 100 nM and the Ki [2] is reported as 500 to 1000 nM.

`Cc1ccc(-c2ccnc(C)n2)c(C2CCN(CC(=O)N3CCOCC3)CC2)n1` [Example 19, 2-(4-(6-Methyl-3-(2-methylpyrimidin-4-yl)pyridin-2-yl)piperidin-1-yl)-1-morpholinoethan-1-one] showed a Ki [1] of 500 to 1000 nM and a Ki [2] of 500 to 1000 nM.
